Where no end group is shown, it is not given here.
Columns and labels:
[1] = system: PC-3M prostate cancer cell line; assay: In vitro metastasis assay (spheroid disaggregation, radial migration); assay type: cell-based
Protocol: In vitro metastasis assays were conducted to determine the anti-metastatic effect of various compounds. This assay involves preparation of spheroids approximately […] in diameter of cancer cells cultured on an extracellular matrix. In 24 hours, only metastatic cells disaggregate from the spheroid and start radial migration. Thus, lower measurements of radial migration are indicative of greater effectiveness of the drug/compound. Spheroids were prepared from single cell suspension of prostate cell lines as described before in Gondi, C. S., Lakka, S. S., Yanamandra, N., Olivero, W. C., Dinh, D. H., Gujrati, M., Tung, C. H., Weissleder, R., and Rao, J. S. (2004) Cancer Res 64(12), 4069-4077 and in Thomas, S., Chiriva-Internati, M., and Shah, G. V. (2007) Clin Exp Metastasis 24(5), 363-377 both of which are incorporated herein by reference. 5×10^4/ml cells in RPMI 1640 serum-free medium were placed on 96-well low-attachment tissue culture plates. The plates were rocked on gyrotory shaker in a CO2 incubator at 37° C. for 2 days, at the end of which the spheroids measuring 150-300 μm in diameter (˜4×10^4 cells/spheroid) were formed. A single spheroid was then placed in the center of each well of extracellular-matrix-coated 24-well microplate in […] of serum-free medium. From previous studies, it was determined that 1 hour was an appropriate time for spheroids to begin adhering to an extracellular matrix. Thus, t=0 was set as 1 hour from initial plating, so that if the plate was not disturbed, the spheroids would not move from their location at the time of plating. Spheroids were digitally photographed at t=0, cultured at 37° C. for 48 h and then re-photographed. […] The diameter of the area covered with cells migrated from the spheroids was measured in a microscope calibrated with a stage and ocular micrometer. The radial distance of migration was calculated after subtraction of the mean initial spheroidal diameter at t=0.

PC-3M cells [2] = assay: Invasion assay (Matrigel Boyden invasion chambers); assay type: cell-based; details: 24 hours, FIG. 2
Protocol: Invasion assays were used to identify compounds with antimetastatic activity. Invasion assays were performed on a control group, a calcitonin (CT) stimulated group, a drug treated group and a group that was both drug treated and CT stimulated. The assay employed two-compartmented Boyden invasion chambers sold under the trademark MATRIGEL. The assay conditions were as follows: exponentially growing PC cells were serum-starved for 24 hours with basal incubation medium. Serum-starved cells were then seeded at a density of 25×10^3 cells/well in the upper insert of the invasion chamber. The lower chamber received the chemoattractant medium, which consisted of 90% basal RPMI medium and 10% conditioned medium from the cultures of PC-3M cells expressing constitutively active Gsa protein as described in Chien, J., Wong, E., Nikes, E., Noble, M. J., Pantazis, C. G., and Shah, G. V. (1999) Oncogene 18(22), 3376-3382 which is incorporated herein by reference. The incubations were carried out for 24 hours, after which the basement matrix protein or Matrigel™ (along with non-invading cells) was scraped off with cottonswabs, and the outer side of the insert was fixed and stained using hemaoxylin staining sold under the trademark Diff Quick (Dade Behring Diagnostics, Aguada, PR). The number of cells migrated on the outer bottom side of the insert were counted under the microscope in six or more randomly selected fields (magnification: 100×). The final results were expressed as mean+/−SEM number of invaded cells per 100× field. Each experiment was done in triplicates, and the experiment was repeated twice. […] To correct this, the growth rate was determined for PC-3M cells under identical culture conditions. 25×10^3 cells were plated at hourly intervals in six-well dishes and cultured for 1-24 hours. Mean percent increase in the cell number was determined by counting the net increase in the number of cells. […] This correction was applied to the results of invasion assays.

PC-3M cells [3] = assay: MTT assay, cell proliferation; assay type: cell-based
Protocol: MTT assays were used to measure effect of the tested drugs on tumor growth. MTT assays were performed on a control group, a calcitonin (CT) stimulated group, a group treated with compound 1 (drug treated), and a group that was both drug treated and CT stimulated. Conditions for the MTT assay were as follows: Exponentially growing cells were plated in a 96-well plate at a density of 8×10^3 cells per well, and cultured for 24 hours in complete growth medium (RPMI 1640 containing 10% fetal bovine, 10 mM HEPES, 4 mM L-glutamine, 100 IU/ml penicillin G and 100 μg/ml streptomycin). The complete growth medium was then replaced with 100 μl of basal incubation medium (RPMI 1640 containing 0.1% BSA, 10 mM HEPES, 4 mM L-glutamine, 100 IU/ml penicillin G and 100 μg/ml streptomycin). The cells were then treated with test compounds (dissolved in basal incubation medium), and the culture was continued at 37° C. under 5% CO2 for 24 hours. The cells were then treated with MTT solution at 37° C. for 4 h, and the color reaction was stopped with the stop solution (10% sodium dodecyl sulfate solution in 0.01 M hydrochloric acid) (100 μl/well). The incubation at 37° C. was continued until the formazan product was completely dissolved. Absorbance of the samples was determined at 595 nm with an ELISA plate reader (Bio-Rad, Hercules, Calif.).

[4] = system: PC-3M cells over expressing CT; assay: Xenograft testing, orthotopic implant in athymic nude mice; assay type: in vivo; details: compound 1 200 μg/day, compound 2 40 μg/day; for average life-expectancy: intraperitoneally every other day, untreated 54 days, ± SEM; for tumor growth in secondary organs (metastases): intraperitoneally, FIG. 5
Description: In vivo xenograft testing was done on athymic nude mice to measure the anti-cancer effect of various compounds. PC-3M prostate cells were used that contain a red fluorescence protein from gene transfer to facilitate tracking of cancer cells. The red fluorescence protein used is described in Yang, M., Baranov, E., Wang, J. W., Jiang, P., Wang, X., Sun, F. X., Bouvet, M., Moossa, A. R., Penman, S., and Hoffman, R. M. (2002) Proc Natl Acad Sci U S A 99(6), 3824-3829, which is incorporated herein by reference. 1×10^5 PC-3M cells over expressing CT were implanted in 30 day old mice orthotopically, that is the prostate cancer cells were implanted into the prostate of the mice. The cells were then allowed to grow in their native environment allowing for metastasis into other organs such as the lymph nodes, bones and lungs. The mice, other than the control mice were injected intraperitoneally every other day. Dosing rates were 200 μg/day or 5 μg/g body weight/day-intrapertonieally for compound 1 and 40 μg/day or 1 μg/g body weight/day-intraperitoneally for compound 2. Tumor growth was measured by fluorescence imaging and the mice were sacrificed upon signs of morbidity such as immobility and high tumor burden.

prostate tumors = assay: Testing of transgenic LPB-Tag mice that spontaneously form prostate tumors; assay type: in vivo; details: 80 μg/week intraperitoneally
Description: In vivo testing was done on transgenic mice that spontaneously form prostate tumors to measure the anti-cancer effect of compound 2. The mice used were LPB-Tag mice of the type described in Kasper, S., and Smith, J. A., Jr. (2004) J Urol 172(1), 12-19 which is incorporated herein by reference. The mice were originally developed by Dr. Robert Matusik of Vanderbilt University. LPB-Tag mice are generated by the targeted expression of SV40 large T-antigen (Tag) in the prostate using androgen-regulated, prostate-specific large probasin (LPB) gene promoter. The mice develop PIN lesions as well as extensive prostate adenocarcinomas in adulthood. The mice had their p53 gene knocked out and T-antigen selectively targeted to the prostate. Therefore, the mice begin to develop prostate tumors spontaneously as they approached the age of 50 days (adulthood), the tumors gradually grew and became very large at the age of 90 days. Mice were sacrificed around day 90 and their prostates and other organs were harvested for studying tumor characteristics and histology. Compound 2 was delivered at a dosing of 80 μg/week or 2 μg/g body weight/week-intraperitoneally. […] These tests indicate that compounds of this invention may be used as a chemopreventive for high risk patients.

PC-3M cells [5] = assay: Growth rate of PC-3M cells by cell counting (correction for invasion assay); assay type: cell-based; details: vehicle control=1; cultured 1-24 hours
Protocol: Invasion assays were used to identify compounds with antimetastatic activity. Invasion assays were performed on a control group, a calcitonin (CT) stimulated group, a drug treated group and a group that was both drug treated and CT stimulated. The assay employed two-compartmented Boyden invasion chambers sold under the trademark MATRIGEL. The assay conditions were as follows: exponentially growing PC cells were serum-starved for 24 hours with basal incubation medium. Serum-starved cells were then seeded at a density of 25×10^3 cells/well in the upper insert of the invasion chamber. The lower chamber received the chemoattractant medium, which consisted of 90% basal RPMI medium and 10% conditioned medium from the cultures of PC-3M cells expressing constitutively active Gsa protein as described in Chien, J., Wong, E., Nikes, E., Noble, M. J., Pantazis, C. […] The number of cells migrated on the outer bottom side of the insert were counted under the microscope in six or more randomly selected fields (magnification: 100×). The final results were expressed as mean+/−SEM number of invaded cells per 100× field. […] To correct this, the growth rate was determined for PC-3M cells under identical culture conditions. […] Mean percent increase in the cell number was determined by counting the net increase in the number of cells. […]

| Molecule | dose until which no cytotoxicity [1] [µM] | disaggregation and migration of cells from spheroids ([1]; 50 μM) | effective dose range ([1]; multiple doses, distances migrated by the cells) [µM] | baseline invasion (PC-3M cells [2]; 50 μM, no CT) | CT-stimulated invasion (PC-3M cells [2]; 50 μM, CT 50 nM) | rate of CT stimulated cell proliferation (PC-3M cells [3]; 50 μM, 24 hours, CT stimulated, FIG. 1) | rate of baseline cell proliferation (PC-3M cells [3]; 50 μM, 24 hours, baseline (no CT), FIG. 1) | dosage rate until which no cytotoxic effect on PC-3M cells (PC-3M cells [3]; PC-3M cells) [µM] | average life-expectancy [4] [days] | tumor growth in secondary organs (metastases) [4] | increased survival (prostate tumors) | decrease of tumor size measured at necropsy compared to diluents treated mice (prostate tumors; sacrificed around day 90) [%] | invasion of PC-3M cells (PC-3M cells [2]; CT 50 nM) | relative CT-induced increase in cell number, pooled results of all time points (PC-3M cells [5]) |
| --- | --- | --- | --- | --- | --- | --- | --- | --- | --- | --- | --- | --- | --- | --- |
| O=C1NC(=O)/C(=C/c2ccc(O)cc2)N1 [compound 1, (Z)-5-(4-hydroxybenzylidene)imidazolidine-2,4-dione] | ≥ 500 | did not disaggregate or migrate | 25 to 200 | did not affect baseline invasion | almost abolished CT-stimulated invasion | moderate but significant decline | moderate but significant decline | ≥ 500 | 61.44 | completely prevented tumor growth in most secondary organs | – | – | – | – |
| CCSc1ccc(/C=C2\NC(=O)NC2=O)cc1 [compound 2, (Z)-5-(4-S-ethylbenzylidene)imidazolidine-2,4-dione] | – | – | – | – | – | – | – | – | 66 ± 1 | completely prevented tumor growth in most secondary organs | at least 1 week | 62 | – | – |
| calcitonin (CGNLSTCMLGTYTQDFNKFHTFPQTAIGVGAP; ends and bridges not checked; cysteine pairing not given here; UniProt P01258 85-116, looked up) [CT, calcitonin (CT), used to stimulate proliferation, invasion and metastasis of PC-3M cells, reference compound] | – | – | – | – | – | – | – | – | – | – | – | – | significantly increased | 1.19 |

— US8188130B1, “Anti-cancer hydantoin compounds and methods” (University of Louisiana at Monroe, priority 2008, dated 2012)
